Assay results as given in PubChem BioAssay (NCI).
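How tested: cells in 96-well plates exposed to compound for 48 hours at five concentrations. Abbreviation: GI50, concentration required for 50% inhibition of growth. TGI: concentration producing complete growth inhibition.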

How the values were obtained:
Test in all cases: NCI anticancer screen, dose series, 48 h
[1] = test system: A549 NSCLC
[2] = test system: SK-MEL-28 melanoma
[3] = test system: NCI/ADR-RES ovarian
[4] = test system: IGROV1 ovarian
[5] = test system: MCF7 breast
[6] = test system: HCT-15 colon
[7] = test system: MDA-MB-231 breast
[8] = test system: SNB-75 CNS
[9] = test system: T-47D breast
[10] = test system: HL-60(TB) leukemia

## O=C(N/N=C/c1ccc(Cl)cc1)c1ccc(NC(=O)c2ccccn2)cc1
[1]
  GI50: 15.9 µM
  TGI: 68 µM
[2]
  GI50: 33 µM
  TGI: > 100 µM
[3]
  GI50: 16.2 µM
  TGI: > 100 µM
[4]
  GI50: 38.1 µM
  TGI: > 100 µM
[5]
  GI50: 47.3 µM
  TGI: > 100 µM
[6]
  GI50: 42.1 µM
  TGI: > 100 µM
[7]
  GI50: 27.3 µM
  TGI: > 100 µM
[8]
  GI50: 5.52 µM
  TGI: 24.9 µM
[9]
  GI50: 21.2 µM
  TGI: > 100 µM

## O=C(NCc1cn(Cc2cccc(Oc3ccccc3)c2)nn1)c1cccnc1Nc1ccc(F)cc1
[1]
  GI50: 6.11 µM
  TGI: > 100 µM
[2]
  GI50: 7.98 µM
  TGI: > 100 µM
[3]
  GI50: 14 µM
  TGI: > 100 µM
[4]
  GI50: 30.7 µM
  TGI: > 100 µM
[10]
  GI50: > 100 µM
  TGI: > 100 µM
[7]
  GI50: 14.5 µM
  TGI: > 100 µM
[8]
  GI50: 3.81 µM
  TGI: 21.3 µM
[9]
  GI50: 21.4 µM
  TGI: > 100 µM

## O=C1NN2CC(c3ccccc3)=NN=C2c2ccccc21
[1]
  GI50: 28.6 µM
  TGI: 70.8 µM
[2]
  GI50: 28.1 µM
  TGI: > 100 µM
[3]
  GI50: 17.5 µM
  TGI: 42.7 µM
[4]
  GI50: 42.8 µM
  TGI: > 100 µM
[5]
  GI50: 15.8 µM
  TGI: 37.2 µM
[10]
  GI50: 19.9 µM
  TGI: 56.8 µM
[6]
  GI50: 24.4 µM
  TGI: 86.3 µM
[7]
  GI50: 26.4 µM
  TGI: 79.1 µM
[8]
  GI50: > 100 µM
  TGI: > 100 µM

## CC(C)(C)CC(C)(C)c1ccc(OCCO)cc1
[1]
  GI50: 9.04 µg/mL
  TGI: > 75 µg/mL
[2]
  GI50: 11.4 µg/mL
  TGI: 29.7 µg/mL
[3]
  GI50: 2.61 µg/mL
  TGI: 18.1 µg/mL
[5]
  GI50: 4.01 µg/mL
  TGI: 17 µg/mL
[10]
  GI50: 1.81 µg/mL
  TGI: 31.6 µg/mL
[6]
  GI50: 7.74 µg/mL
  TGI: 19.3 µg/mL
[7]
  GI50: 4.43 µg/mL
  TGI: 15.7 µg/mL
[8]
  GI50: 3.45 µg/mL
  TGI: 18.1 µg/mL
[9]
  GI50: 2.1 µg/mL
  TGI: 18.3 µg/mL

## COc1cccc2c1nc(C(F)F)n2-c1nc(-c2ccc(NS(=O)(=O)CCN(C)C)cc2)nc(N2CCOCC2)n1
[1]
  GI50: 0.174 µM
  TGI: 4.33 µM
[2]
  GI50: 0.0774 µM
  TGI: 2.5 µM
[3]
  GI50: 0.434 µM
  TGI: 33.6 µM
[4]
  GI50: 0.0261 µM
  TGI: 0.154 µM
[10]
  GI50: 0.0397 µM
  TGI: 10.2 µM
[6]
  GI50: 0.152 µM
  TGI: 5.06 µM
[7]
  GI50: 0.617 µM
  TGI: 37.2 µM
[8]
  GI50: 0.0246 µM
  TGI: 0.282 µM
[9]
  GI50: 0.0177 µM
  TGI: 0.0882 µM

## O=C(CCc1n[nH]c(=S)o1)Nc1cc(Cl)ccc1Cl
[1]
  TGI: > 100 µM
[2]
  TGI: > 100 µM
[4]
  TGI: > 100 µM
[10]
  TGI: 78.9 µM
[6]
  TGI: 38.8 µM
[8]
  TGI: > 100 µM

## CCN(CC)CC(=O)NC1c2ccccc2Oc2ccccc21
[1]
  TGI: > 100 µM
[2]
  TGI: > 100 µM
[4]
  TGI: > 100 µM
[10]
  TGI: > 100 µM
[6]
  TGI: > 100 µM
[8]
  TGI: > 100 µM

## COc1cc2c(c3oc(-c4ccc(O)cc4)c(O)c(=O)c13)CCC(C)(C)O2
[1]
  GI50: 0.27 µM
  TGI: 0.729 µM
[2]
  GI50: 0.21 µM
  TGI: 0.93 µM
[3]
  GI50: 0.309 µM
  TGI: 0.829 µM
[4]
  GI50: 0.158 µM
  TGI: 0.526 µM
[5]
  GI50: 0.381 µM
  TGI: > 100 µM
[6]
  GI50: 0.169 µM
  TGI: 0.392 µM
[7]
  GI50: 0.101 µM
  TGI: 0.312 µM
[8]
  GI50: 0.103 µM
  TGI: 0.283 µM
[9]
  GI50: 0.767 µM

## Cn1cc(C2NC(=O)c3ccccc3N2)c2ccccc21 (centres undefined)
[1]
  TGI: > 100 µM
[2]
  TGI: > 100 µM
[3]
  TGI: 2.49 µM
[4]
  TGI: > 100 µM
[5]
  TGI: 5.1 µM
[10]
  TGI: 0.485 µM
[6]
  TGI: 8.48 µM
[7]
  TGI: > 100 µM

## O=C(/C=C/c1ccccc1)NC1C=Nc2ccc([N+](=O)[O-])cc2NC1=O (centres undefined)
[1]
  TGI: > 100 µM
[2]
  TGI: > 100 µM
[4]
  TGI: > 100 µM
[10]
  TGI: > 100 µM
[6]
  TGI: > 100 µM
[8]
  TGI: > 100 µM

## NS(=O)(=O)c1ccc(N(/C=C/C(=O)C(F)(F)F)CC(=O)c2ccc(F)cc2)cc1
[1]
  GI50: 44.2 µM
  TGI: > 100 µM
[2]
  GI50: 43.7 µM
  TGI: > 100 µM
[3]
  GI50: 18.2 µM
  TGI: 41.6 µM
[4]
  GI50: 24.8 µM
  TGI: 52.5 µM
[5]
  GI50: > 100 µM
  TGI: > 100 µM
[6]
  GI50: 23.6 µM
  TGI: 85.5 µM
[7]
  GI50: 20.9 µM
  TGI: 42 µM
[9]
  GI50: 43 µM
  TGI: > 100 µM

## COC(=O)C(=O)C(C#N)c1nc2ccccc2s1 (centres undefined)
[1]
  TGI: > 100 µM
[2]
  TGI: > 100 µM
[4]
  TGI: > 100 µM
[10]
  TGI: > 100 µM
[6]
  TGI: > 100 µM
[8]
  TGI: > 100 µM

## Cc1ccc(S(=O)c2ccccc2[N+](=O)[O-])cc1 (centres undefined)
[1]
  TGI: > 100 µM
[2]
  TGI: > 100 µM
[4]
  TGI: > 100 µM
[10]
  TGI: > 100 µM
[6]
  TGI: > 100 µM

## CN(C)CC1CC/C(=C\c2ccc(Cl)c(Cl)c2)C1=O (centres undefined)
[1]
  TGI: > 100 µM
[2]
  TGI: > 84.8 µM
[4]
  TGI: > 69.6 µM
[10]
  TGI: 4.68 µM
[6]
  TGI: > 43.1 µM
[8]
  TGI: > 66.6 µM

## COc1ccc(C2=NN(C(N)=S)C(c3ccc4c(c3)OCO4)C2)cc1 (centres undefined)
[1]
  GI50: 3.19 µM
  TGI: > 100 µM
[2]
  GI50: 9.33 µM
  TGI: > 100 µM
[3]
  GI50: 2.9 µM
  TGI: 12.6 µM
[4]
  GI50: 2.42 µM
  TGI: 6.8 µM
[5]
  GI50: 3.23 µM
  TGI: > 100 µM
[6]
  GI50: 2.88 µM
  TGI: > 100 µM
[7]
  GI50: 4.71 µM
  TGI: 65.7 µM
[8]
  GI50: 2.75 µM
  TGI: 8.51 µM
[9]
  GI50: 3.22 µM
  TGI: 41 µM

## CC(C)(CN1CCCCC1)C(=O)/C=C/c1ccccc1
[1]
  TGI: 52.7 µM
[2]
  TGI: 33 µM
[4]
  TGI: 86.6 µM
[6]
  TGI: 67.2 µM
[8]
  TGI: 39.3 µM

## N#CCCNc1nonc1-c1nc2ccccc2n1CC(=O)c1ccc(N)cc1
[1]
  GI50: 0.0345 µM
  TGI: > 100 µM
[2]
  GI50: 0.0351 µM
  TGI: > 100 µM
[3]
  GI50: < 0.01 µM
  TGI: 0.0429 µM
[4]
  GI50: 0.0356 µM
  TGI: > 100 µM
[5]
  GI50: < 0.019 µM
  TGI: > 100 µM
[10]
  GI50: < 0.0164 µM
[6]
  GI50: 0.0334 µM
  TGI: > 100 µM
[8]
  GI50: 0.0232 µM
  TGI: > 73 µM
[9]
  GI50: 29 µM
  TGI: > 100 µM

## O=C([CH-]C(=O)c1ccccc1)c1ccccc1.O=C([CH-]C(=O)c1ccccc1)c1ccccc1.O=C([CH-]C(=O)c1ccccc1)c1ccccc1.[Ga+3]
[1]
  GI50: 39.6 µM
  TGI: > 100 µM
[2]
  GI50: > 100 µM
  TGI: > 100 µM
[4]
  GI50: 81.9 µM
  TGI: > 100 µM
[10]
  GI50: 20.5 µM
  TGI: > 100 µM
[8]
  GI50: 64.7 µM
  TGI: > 100 µM
